The assay has as its target T1, PDIA4 (Homo sapiens, UniProt P13667).
T1 sequence (P13667 21-645): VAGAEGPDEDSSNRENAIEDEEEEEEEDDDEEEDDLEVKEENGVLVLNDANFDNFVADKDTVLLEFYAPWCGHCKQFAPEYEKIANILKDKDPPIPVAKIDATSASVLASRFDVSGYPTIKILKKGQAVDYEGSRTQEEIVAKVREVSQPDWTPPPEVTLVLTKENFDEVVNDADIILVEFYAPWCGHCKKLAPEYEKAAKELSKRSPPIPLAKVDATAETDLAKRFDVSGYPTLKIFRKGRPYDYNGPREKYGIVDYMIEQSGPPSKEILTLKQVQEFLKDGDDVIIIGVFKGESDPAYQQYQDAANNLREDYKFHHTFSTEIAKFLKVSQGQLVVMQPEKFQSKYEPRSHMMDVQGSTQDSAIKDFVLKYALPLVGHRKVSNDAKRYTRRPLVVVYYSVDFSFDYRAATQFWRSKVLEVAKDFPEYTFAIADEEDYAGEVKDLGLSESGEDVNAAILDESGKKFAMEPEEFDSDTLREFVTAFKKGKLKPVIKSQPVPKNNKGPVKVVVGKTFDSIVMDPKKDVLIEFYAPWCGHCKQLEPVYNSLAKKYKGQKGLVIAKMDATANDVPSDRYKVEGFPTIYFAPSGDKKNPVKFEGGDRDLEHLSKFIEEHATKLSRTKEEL
The experiment in a line: biochemical.

Each structure is given as a SMILES string.
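Also: enzymatic activity of PDIA4 read as absorbance at 595 nm, inhibition given as percent decrease relative to vehicle-treated control.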

Method: Recombinant PDI proteins PDIA4 (23 pM) was incubated with insulin (0.2 mM) and DTT (0.1 mM) in the presence of vehicle and compounds at the indicated doses for 30 min at 25° C. The mixture was, measured using a SpectraMax i3x reader at 595 nm based on the manufacturer's instructions (Molecular device, CA, USA). Inhibition of the enzymatic activity PDIA4 is calculated by the formula, 100%×(OD595 of vehicle−OD595 of CP)/(OD595 of vehicle) as published previously.

In the case of `C#CC(=O)Nc1ccc(C(=O)NCC(=O)O)cc1` [C11, (4-propiolamidobenzoyl)glycine], 27.6 µM corresponded to half-maximal inhibition (IC50).
To `C#CC(=O)Nc1cc(OC)c(OCCCN2C(=O)c3ccccc3C2=O)cc1C(=O)OC` [50b, methyl 5-(3-(1,3-dioxoisoindolin-2-yl)propoxy)-4-methoxy-2-propiolamidobenzoate] belongs 4.3 µM; to `C#CC(=O)Nc1cc(OC)c(OCCCN(C(=O)C#C)C(=O)c2ccccc2F)cc1C(=O)OC` [58b, methyl 5-(3-(2-fluoro-N-propioloylbenzamido)propoxy)-4-methoxy-propiolamidobenzoate], 4.2 µM.
For the compound `C#CC(=O)OC(=O)c1cc(OC)c(OC)cc1N` [compound 10, 2-amino-4,5-dimethoxybenzoic propiolic anhydride], the IC50 (as a rule, the concentration that gives 50% inhibition) came to 1.6 µM.
The same measure for `CC#CC#C/C=C1\C=CC2(OC=CC2OC(=O)C=C(C)C)O1` (stereo not shown) [C6, (E)-7-(hexa-2,4-diyn-1-ylidene)-1,6-dioxaspiro[4,4]nona-2,8-dien-4-yl 3-methylbut-2-enoate]: 753 µM.
To `C#CC(=O)Nc1cc(OC)c(OCCCN(C(=O)C#C)C(=O)c2ccccc2)cc1C(=O)O` [compound 40, 4-methoxy-2-propiolamido-5-(3-(N-propioloylbenzamido)propoxy)benzoic acid] belongs 3.9 µM.
To `O=C(Cc1ccccc1)OCC#CC#CCOC(=O)Cc1ccccc1` [C9, hexa-2,4-diyne-1,6-diyl bis(2-phenylacetate)] belongs above 1000 µM; to `COc1cc(N)c(C(=O)O)cc1OC` [compound 9, 2-amino-4,5-dimethoxybenzoic acid], above 1000 µM; to `C#CC(=O)Nc1cc(OC)c(OCCCN(C(=O)C#C)C(=O)Cc2ccccc2)cc1C(=O)OC` [58i, methyl 4-methoxy-5-(3-(N-(2-phenylacetyl)propiolamido)propoxy)-2-propiolamidobenzoate], 1.9 µM.
As to `COC(=O)c1cc(OCCCN)c(OC)cc1[N+](=O)[O-]` [compound 55, methyl 5-(3-aminopropoxy)-4-methoxy-2-nitrobenzoate], the IC50 is above 1000 µM.
To `C#CC(=O)OC(=O)c1cc(OCc2ccccc2)c(OC)cc1N` [compound 16, 2-amino-5-(benzyloxy)-4-methoxybenzoic propiolic anhydride] belongs 13.3 µM; to `C#CC(=O)Nc1cc(OC)c(OCCCN(C(=O)C#C)C(=O)Cc2cccc(OC)c2)cc1C(=O)OC` [58n, methyl 4-methoxy-5-(3-(N-(2-(3-methoxyphenyl)acetyl)propiolamido)propoxy)-2-propiolamidobenzoate], 1.4 µM; to `CC#CC#C/C=C1/C=CC(=O)O1` [C2, (Z)-5-(hexa-2,4-diyn-1-ylidene)furan-2(5H)-one], 96.5 µM.
The same measure for `C#CC(=O)Nc1ccc(O)c(C(=O)O)c1` [C14, 2-hydroxy-5-propiolamidobenzoic acid]: 55.7 µM; for `COC(=O)c1cc(OC)c(OC)c(OC)c1N` [compound 19, methyl 2-amino-3,4,5-trimethoxybenzoate]: above 1000 µM.
To `C#CC(=O)Nc1ccc(CC(=O)O)cc1` [C12, 2-(4-propiolamidophenyl)acetic acid] belongs 92.1 µM; to `C#CC(=O)Nc1cc(OCCC)c(OCCC)cc1C(=O)OCCC` [compound 30, propyl 2-propiolamido-4,5-dipropoxybenzoate], above 300 µM; to `CC#CC#CC#CC#CCCC(O)CO` (stereo not shown) [CPD P2, cytopiloyne aglycone, reference compound], 168 µM.
Compound `C#CC(=O)OC(=O)c1cc(OCCC)c(OC)cc1N` [compound 45, 2-amino-4-methoxy-5-propoxybenzoic propiolic anhydride] yielded an IC50 of 1 µM.
Compound `O=C(OCC#CC#CCOC(=O)c1ccccc1)c1ccccc1` [C10, hexa-2,4-diyne-1,6-diyl dibenzoate] showed an IC50 above 1000 µM.
The same measure for `C#CC(=O)Nc1cc(OC)c(OCCCN(C(=O)C#C)C(=O)Cc2ccc(F)cc2)cc1C(=O)OC` [58l]: 1.4 µM.
The same measure for `CCCOc1cc(C(=O)O)c(N)cc1OC` [compound 44, 2-amino-4-methoxy-5-propoxybenzoic acid]: above 1000 µM; for `C#CC(=O)Nc1cc(OC)c(OC)cc1C(=O)OCC[Si](C)(C)C` [compound 7, 2-(trimethylsilyl)ethyl 4,5-dimethoxy-2-propiolamidobenzoate]: 78.7 µM; for `COc1cc(C(=O)O)c(N)c(OC)c1OC` [compound 21, 2-amino-3,4,5-trimethoxybenzoic acid]: above 1000 µM.
To `CC#CCNc1ccc(NC(C)=O)cc1` [C8, N-(4-(but-2-yn-1-ylamino)phenyl)acetamide] belongs above 1000 µM; to `C#CC(=O)Nc1cc(OC)c(OCCCN(C(=O)C#C)C(=O)c2cccc(OC)c2)cc1C(=O)OC` [58g], 3.3 µM.
`C#CC(=O)Nc1cc(OC)c(OCCCN(C(=O)C#C)C(=O)Cc2ccc(OC)cc2)cc1C(=O)OC` [58o, methyl 4-methoxy-5-(3-(N-(2-(4-methoxyphenyl)acetyl)propiolamido)propoxy)-2-propiolamidobenzoate] showed an IC50 of 2.1 µM.
The same measure for `C#CC(=O)N(c1ccc(OC)cc1OC)C(C(=O)NCC(=O)OCC)c1cccs1` (stereo not shown) [C5, ethyl (2-(N-(2,4-dimethoxyphenyl)propiolamido)-2-(thiophen-2-yl)acetyl)glycinate]: 760 µM.
Compound `C#CC(=O)Nc1cc(OC)c(OCCCN(C(=O)C#C)C(=O)c2ccc(F)cc2)cc1C(=O)OC` [58d, methyl 5-(3-(4-fluoro-N-propioloylbenzamido)propoxy)-4-methoxy-2-propiolamidobenzoate] gave an IC50 of 2.4 µM.
`C#CC(=O)Nc1cc(OC)c(OCCCNC(=O)OC(C)(C)C)cc1C(=O)OC` [compound 61, Methyl 5-(3-((tert-butoxycarbonyl)amino)propoxy)-4-methoxy-2-propiolamidobenzoate]: the IC50 amounted to 4.7 µM.
To `C#CC(=O)Nc1c(C(=O)OC)cc(OC)c(OC)c1OC` [compound 20, methyl 3,4,5-trimethoxy-2-propiolamidobenzoate] belongs 42.5 µM; to `C#CC(=O)OC(=O)c1cc(OC)c(OC)c(OC)c1N` [compound 22, 2-amino-3,4,5-trimethoxybenzoic propiolic anhydride], 4.3 µM; to `C#CC(=O)Nc1cc(OC)c(OCCCN(C(=O)C#C)C(=O)Cc2cccc(Cl)c2)cc1C(=O)OC` [58r, methyl 5-(3-(N-(2-(3-chlorophenyl)acetyl)propiolamido)propoxy)-4-methoxy-2-propiolamidobenzoate], 1.6 µM.
In turn, `COC(=O)c1cc(OC)c(OC)cc1N` [compound 3, methyl 2-amino-4,5-dimethoxybenzoate] registered an IC50 above 1000 µM.
The same measure for `C#CC(=O)Nc1cc(OCCC)c(OCCC)cc1C(=O)OC` [compound 29, methyl 2-propiolamido-4,5-dipropoxybenzoate]: above 300 µM; for `OCC#CC(O)c1ccccc1` (stereo not shown) [C7, 1-phenylbut-2-yne-1,4-diol]: above 1000 µM.
The same measure for `C#CC(=O)Nc1cc(OC)c(OCCC)cc1C(=O)OCCC` [compound 43, propyl 4-methoxy-2-propiolamido-5-propoxybenzoate]: 431 µM.

Values taken from patent publication US12605353B2, “PDIA4 inhibitors and use thereof for inhibiting β-cell pathogenesis and treating diabetes” (Academia Sinica, priority 2019, dated 2026).
